Patent US5393761A, “3-arylindole compounds” (H. Lundbeck A/S, priority 1990, dated 1995)
Structures can show the parent of a compound that is named as a salt.

Columns and labels:
[1] = literature (Ceulemans et al. 1985); cited from earlier work
[2] = molecular target: T1, serotonin S2 (5-HT2) receptors in rat cortex (Rattus norvegicus, UniProt P14842); assay: Inhibition of ^3H-ketanserin binding to serotonin S2 (5-HT2) receptors in rat cortex in vitro; settings: 0.5 nM ^3H-ketanserin, rat cortex membranes, 37° C., 30 min
T1 construct: Serotonin S2 (5-HT2) receptors in membranes from rat; from tissue; host or cells: cerebral cortex membranes of male Wistar rats (printed 'conical tissue', a misprint for cortical)
T1 sequence (P14842 whole entry): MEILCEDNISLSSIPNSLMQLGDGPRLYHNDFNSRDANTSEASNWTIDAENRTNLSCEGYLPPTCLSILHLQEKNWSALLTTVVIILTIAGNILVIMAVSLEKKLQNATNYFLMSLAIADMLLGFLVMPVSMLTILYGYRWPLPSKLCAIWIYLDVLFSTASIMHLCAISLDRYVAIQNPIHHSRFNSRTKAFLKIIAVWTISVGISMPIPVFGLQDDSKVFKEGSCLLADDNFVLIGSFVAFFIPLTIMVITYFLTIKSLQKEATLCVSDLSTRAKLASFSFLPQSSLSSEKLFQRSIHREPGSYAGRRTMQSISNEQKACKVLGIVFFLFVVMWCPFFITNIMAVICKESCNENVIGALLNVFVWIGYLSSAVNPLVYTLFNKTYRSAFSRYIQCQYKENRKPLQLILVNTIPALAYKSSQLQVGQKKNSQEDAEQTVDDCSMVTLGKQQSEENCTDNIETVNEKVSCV
Experimental: Method in Hyttel, Pharmacology & Toxicology, 61, 126-129, 1987.
Male Wistar (Mol:Wist) rats (125-250 g) are sacrificed and conical tissue is dissected and weighed. The tissue is homogenized (Ultra Turrax, 10 sec.) in 10 ml of ice-cold 50 mM tris buffer pH 7.7 (at 25° C.). The centrifuge glassware used in this step has been rinsed by sonication for 10 min. in ethanol. The homogenate is centrifuged twice at 20,000 g for 10 min. at 4° C. with rehomogenization of the pellet in 10 ml ice-cold buffer. The final pellet is homogenized in 500 vol (w/v)ice-cold buffer.
Incubation tubes kept on ice in triplicate receive 100 μl Of drug solution in water (or water for total binding) and 2000 μl of tissue suspension (final tissue content corresponds to 4 mg original tissue). […] After incubation for 30 min. the samples are filtered under vacuum (0-50 mBar) through Whatman GF/F filters (25 mm). The tubes are rinsed with 5 ml ice-cold buffer which are then poured on the filters. Thereafter, the filters are washed with 2×5 ml of buffer. The filters are placed in counting vials and 4 ml of appropriate scintillation fluid (e.g. Picofluor ™15) are added. After shaking for 1 h and storage 2 hrs in the dark the content of radioactivity is determined by liquid scintillation counting. Specific binding is obtained by subtracting the nonspecific binding in the presence of 1 μM mianserin. For determination of the inhibition of binding five concentrations of drugs covering 3 decades are used.
The IC50 value is determined as the concentration at which the binding is 50% of the total binding in control samples minus the nonspecific binding in the presence of 1 μM mianserin.

[3] = molecular target: dopamine D-2 receptors in rat corpus striatum (Rattus norvegicus, UniProt P61169); assay: Inhibition of ^3H-spiperone (spiroperidol) binding to dopamine D-2 receptors in rat corpus striatum in vitro; settings: 0.5 nM ^3H-spiperone, rat striatum membranes, 37° C., 10 min
dopamine D-2 receptors in rat corpus striatum, sequence (P61169 whole entry): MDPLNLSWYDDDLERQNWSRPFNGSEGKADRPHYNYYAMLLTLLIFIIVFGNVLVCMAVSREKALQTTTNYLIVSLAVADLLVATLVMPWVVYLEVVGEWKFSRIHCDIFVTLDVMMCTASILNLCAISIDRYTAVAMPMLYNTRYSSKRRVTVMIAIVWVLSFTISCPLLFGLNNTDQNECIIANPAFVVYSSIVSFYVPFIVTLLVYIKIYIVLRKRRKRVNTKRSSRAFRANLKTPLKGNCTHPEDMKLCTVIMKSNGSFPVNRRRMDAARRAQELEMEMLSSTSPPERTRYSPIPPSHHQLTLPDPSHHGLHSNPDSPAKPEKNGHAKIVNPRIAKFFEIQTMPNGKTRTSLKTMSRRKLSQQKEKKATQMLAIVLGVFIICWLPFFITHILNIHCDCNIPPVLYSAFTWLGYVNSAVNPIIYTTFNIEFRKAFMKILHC
Experimental: By this method the inhibition by drugs of the binding of ^3 H-spiperone (=^3 H-spiroperidol) (0.5 nM) to dopamine D-2 receptors in membranes from rat corpus striatum is determined in vitro. Method and results in Hyttel & Larsen, J. Neurochem, 44, 1615-1622, 1985).
Male Wistar (Mol:Wistar) rats (125-250 g) are sacrificed and striatal tissue is dissected and weighed. The tissue is homogenized (Ultra Turrax, 10 sec.) in 10 ml of ice-cold 50 mM K-phosphate buffer pH 7.4 (at 25° C.). The homogenate is centrifuged twice at 20,000 g for 10 min. at 4° C. with rehomogenization of the pellet in 10 ml ice-cold buffer. The final pellet is homogenized in 1300 vol (w/v) ice-cold buffer.
Incubation tubes kept on ice in triplicate receive 100 μl of drug solution in water (or water for total binding) and 4000 μl Of tissue suspension (final tissue content corresponds to 3.08 mg original tissue). The binding experimental is initiated by addition of 100 μl of ^3 H-spiperone (final concentration 0.5 nM) and by placing the tubes in a 37° C. water bath. After incubation for 10 min. the samples are filtered under vacuum (0-50 mBar) through Whatman GF/F filters (25 mm). The tubes are rinsed with 5 ml ice-cold buffer which are then poured on the filters. Thereafter, the filters are washed with 2×5 ml of buffer. The filters are placed in counting vials and 4 ml of appropriate scintillation fluid (e.g. Picofluor ™15) are added. After shaking for 1 h and storage 2 hrs in the dark the content of radioactivity is determined by liquid scintillation counting. Specific binding is obtained by subtracting the nonspecific binding in the presence of 10 μM of 6,7-ADTN.
For determination of the inhibition of binding five concentrations of drugs covering 3 decades are used.
The measured cpm are plotted against drug concentration on semilogarithmic paper and the best fitting S-shaped curve is drawn. […] England, specific activity 15-25 Ci/mmol.

[4] = literature (Klieser, Strauss 1988); cited from earlier work
[5] = literature (Colpart et al. 1985); cited from earlier work
[6] = literature (Janssen 1988); cited from earlier work
[7] = literature (Bersani et al. 1990); cited from earlier work

Structure (SMILES) | IC50 [2] | IC50 [3] | further results
Cc1nc2n(c(=O)c1CCN1CCC(C(=O)c3ccc(F)cc3)CC1)CCS2 [setoperone] |  |  | improvement of negative symptoms of schizophrenia (in words) [1]: blockade of 5-HT2 receptors may be related to improvement of negative symptoms of schizophrenia
CC(C)N1CCN(CCN2CCC(n3cc(-c4ccc(F)cc4)c4ccc(Cl)cc43)CC2)C1=O [Compound 4c, 6-Chloro-3-(4-fluorophenyl)-1-[1-[2-[3-(2-propyl)imidazolidin-2-on-1-yl]ethyl]-4-piperidyl]-1H-indole, hydrochloride, hydrate] | 3.7 nM | 42 nM | 
O=C1NCCN1CCN1CCC(n2nc(-c3ccc(F)cc3)c3ccc(Cl)cc32)CC1 [Compound 4t, 6-Chloro-3-(4-fluorophenyl)-1-[1-[2-(imidazolidin-2-on-1-yl)ethyl]-4-piperidyl]-1H-indazole] | 38 nM | 1900 nM | 
Cc1c(-c2ccccc2)c2cc(Cl)ccc2n1C1CCN(C)CC1 [Compound 9b, 5-Chloro-2-methyl-3-phenyl-1-(1-methyl-4-piperidyl)-1H-indole] | 17 nM | 2900 nM | 
O=C1NCCN1CCN1CCC(n2cc(-c3ccc(F)cc3)c3cc(Cl)ccc32)CC1 [Compound 4d, 5-Chloro-3-(4-fluorophenyl)-1-[1-[2-(imidazolidin-2-on-1-yl)ethyl]-4-piperidyl]-1H-indole] | 5.7 nM | 410 nM | 
Cc1ccc2c(c1)c(-c1ccc(F)cc1)cn2C1=CCN(C)CC1 [Compound 6d, 3-(4-Fluorophenyl)-5-methyl-1-(1-methyl-1,2,3,6-tetrahydropyridin-4-yl)-1H-indole, maleate] | 4.4 nM | 32 nM | 
CNC(=O)N(C)CCN1CCC(n2cc(-c3ccc(F)cc3)c3cc(C)ccc32)CC1 [Compound 15a, 1-[1-[2-(1,3-Dimethyl-1-ureido)ethyl]-4-piperidyl]-3-(4-fluorophenyl)-5-methyl-1H-indole, hydrochloride] | 1.8 nM | > 1000 nM | 
CC(C)N1CCN(CCN2CCC(n3cc(-c4ccc(F)cc4)c4ccccc43)CC2)C1=O [Compound 4l, 3-(4-Fluorophenyl)-1-[1-[2-[3-(2-propyl)imidazolidin-2-on-1-yl]ethyl]-4-piperidyl]-1H-indole, hydrochloride, hydrate] | 3.3 nM | 74 nM | 
Cc1ccc2c(c1)c(-c1ccc(F)cc1)cn2N1CCN(C)CC1 [Compound 20a, 3-(4-Fluorophenyl)-5-methyl-1-(1-methylpiperazin-4-yl)-1H-indole] | 13 nM | 3900 nM | 
CC(C)N1CCN(CCN2CCC(n3cc(-c4ccccc4)c4cc(Cl)ccc43)CC2)C1=O [Compound 4q, 5-Chloro-3-phenyl-1-[1-[2-[3-(2-propyl)imidazolidin-2-on-1-yl]ethyl]-4-piperidyl)-1H-indole] | 25 nM | 3000 nM | 
Cc1ccc2c(c1)c(-c1ccc(F)cc1)cn2C1CCN(C)CC1 [Compound 11a, 3-(4-Fluorophenyl)-5-methyl-1-(1-methyl-4-piperidyl)-1H-indole, fumarate] | 4.5 nM | 540 nM | 
Cc1nc2sccn2c(=O)c1CCN1CCC(=C(c2ccc(F)cc2)c2ccc(F)cc2)CC1 [Ritanserin] |  |  | antidepressant effect and depressive symptoms of schizophrenia (in words) [4]: shown to be an antidepressant and to improve depressive symptoms of schizophrenia; anxiolytic-like effect (in words) [5]: exert effects in an animal test reminiscent of anxiolytic drug activity; quality of sleep (in words) [6]: shown to improve the quality of sleep; relief of neuroleptic-induced parkinsonism (in words) [7]: found to relieve neuroleptic-induced parkinsonism
CC(=O)N1CCN(CCN2CCC(n3cc(-c4ccc(F)cc4)c4cc(C)ccc43)CC2)C1=O [Compound 21a, 1-[1-[2-(3-Acetylimidazolidin-2-on-1-yl)ethyl]-4-piperidyl]-3-(4-fluorophenyl)-5-methyl-1H-indole, oxalate] | 18 nM | 890 nM | 
Cc1ccc2c(c1)c(-c1ccc(F)cc1)c(Cl)n2C1CCN(CCN2CCN(C(C)C)C2=O)CC1 [Compound 27a, 2-Chloro-3-(4-fluorophenyl)-5-methyl-1-[1-[2-[3-(2-propyl)imidazolidin-2-on-1-yl]ethyl]-4-piperidyl]-1H-indole] | 10 nM | 3200 nM | 
Cc1ccc2c(c1)c(-c1ccc(F)cc1)cn2C1CCN(CCN2CCN(C)C2=O)CC1 [Compound 4i, 3-(4-Fluorophenyl)-5-methyl-1-[1-[2-(3-methylimidazolidin-2-on-1-yl)ethyl]-4-piperidyl]-1H-indole, fumarate] | 1.4 nM | 680 nM | 
CC(C)N1CCN(CCN2CCC(n3cc(-c4ccc(F)cc4)c4cc(Cl)ccc43)CC2)C1=O [Compound 4e] | 5.4 nM | 570 nM | 
CN1CCN(CCN2CCC(n3cc(-c4ccc(F)cc4)c4ccc(Cl)cc43)CC2)C1=O [Compound 4a, 6-Chloro-3-(4-fluorophenyl)-1-[1-[2-(3-methylimidazolidin-2-on-1-yl)ethyl]-4-piperidyl)-1H-indole, maleate] | 1.5 nM | 46 nM | 
O=C1NCCN1CCN1CCC(N2CC(c3ccc(F)cc3)c3cc(F)ccc32)CC1 (centres unmarked) [Compound 4r, 2,3-Dihydro-3-(4-fluorophenyl)-1-[1-[2-(imidazolidin-2-on-1-yl)ethyl]-4-piperidyl]-5-fluoro-1H-indole] | 3.4 nM | 230 nM | 
Cc1ccc2c(c1)c(-c1ccc(F)cc1)cn2C1CCN(CCO)CC1 [Compound 16a, 3-(4-Fluorophenyl)-1-[1-(2-hydroxyethyl)-4-piperidyl]-5-methyl-1H-indole, oxalate] | 22 nM | 1500 nM | 
CC(C)N1CCN(CCN2CCC(n3cc(-c4ccc(F)cc4)c4cc(C(F)(F)F)ccc43)CC2)C1=O [Compound 4v, 3-(4-Fluorophenyl)-1-[1-[2-[3-(2-propyl)imidazolidin-2-on-1-yl]ethyl]-4piperidyl]-5-trifluoromethyl-1H-indole] | 11 nM | > 1000 nM | 
